Data on four molecules can be found in ChEMBL document CHEMBL5729403, “Small molecule modulators of the BTB domain of Keap1” (2022).

This experiment is described as follows: HEK293 luciferase: Purpose of the AssayThe purpose of this assay is to identify small molecule inhibitors of Keap1, preventing Keap1 binding to Nrf2, and thus activating the Nrf2 signalling pathway in HEK-293 ARE firefly luciferase transiently transfected cells. HEK-293 cells express wild-type Keap1 protein and therefore have low constitutive levels of Nrf2 protein and Nrf2-dependent transcription. […] When Keap1 is inhibited, Nrf2 signalling is activated, and there is an increase in luciferase expression and light emission.Assay WorkflowCryopreserved HEK ARE luciferase cells were rapidly thawed in a 37° C. water bath and resuspended in assay culture medium (DMEM, 10% FCS, 2 mM L-glutamine). The cell suspension was pelleted by centrifugation ([…]; 300 g) using a Heraeus benchtop centrifuge. Supernatant was removed and the pellet was gently resuspended in 5 mL culture medium per vial. Cell viability and cell number was measured using an Invitrogen Countess automated cell counter (typical viability 80%), and cells were diluted to a density of 5.0×10^5 cells/mL.Cells were then plated out into white 384-well plates (Greiner 781080) using a Multidrop Combi, 20 μL/well, to give 10,000 cells/well. As appropriate, test compounds had been added to wells prior to dispensing cells using an Echo 555 acoustic dispenser (Labcyte). Plates were left at room temperature for ˜10 min to promote even cell settling across the plate before incubation for 18 h at 37° C., 95% humidity and 5% CO2.After 18 h incubation, plates were removed from the incubator and allowed to cool to room temperature for 30 min, before 10 μL per well SteadyGlo reagent detection reagent was added (as per manufacturer's instructions, 10 min before required 10 mL room temperature buffer was added to one vial of lyophilised substrate and inverted several times to fully dissolve). Plates were then incubated in the dark for 30 min before reading on an Envision plate reader.Preparation of Compounds for ScreeningCompounds were acoustically dispensed using a Labcyte Echo, using a 10 pt dose curve with a top concentration of 100 μM. Assay wells were backfilled with DMSO to a total of 60 nL to maintain 0.3% (v/v) DMSO through the assay.Data Analysis Software and Calculation of ResultsThe Stimulator signal was defined using 30 μM tert-butyl hydroquinone (tBHQ) and the Neutral signal by DMSO vehicle control. All calculations were performed using GeneData.
With `CCc1cccc(C2(OC)C=C(C#N)C(=O)C(C)(C)C2)n1` (centres undefined), the EC50 is above 30000 nM.
`COC1(c2cccc(-c3ccccc3)n2)C=C(C#N)C(=O)C(C)(C)C1` (centres undefined): the EC50 was 10000 nM.
For the molecule `COC1(c2cccc(C)n2)C=C(C#N)C(=O)C(C)(C)C1` (centres undefined), the EC50 is 269 nM.
For the molecule `COC1(c2ccc(C)cc2)C=C(C#N)C(=O)C(C)(C)C1` (centres undefined), the EC50 is 309 nM.
